Data on nine molecules can be found in ChEMBL document CHEMBL4304785, “Recent advances of analogues of curcumin for treatment of cancer” (Eur J Med Chem, 2019).

Experiment [1] concerns SK-OV-3. As to the kind of experiment: Induction of apoptosis in human SKOV3 cells at 20 umol/L after 48 hrs by annexin-V-FITC/propidium iodide staining-based flow cytometric method relative to control. The experiment is classed as functional. On the technique in general: In flow cytometry, cells or beads pass a laser one at a time.
In experiment [2] the test system is SK-OV-3. As to the kind of experiment: Induction of apoptosis in human SKOV3 cells at 40 umol/L after 48 hrs by annexin-V-FITC/propidium iodide staining-based flow cytometric method relative to control. The experiment is classed as functional.
A further experiment deals with MDA-MB-231. As to the kind of experiment: Increase in MMP3 level in human MDA-MB-231 cells after 24 hrs by ELISA. The experiment is classed as functional, cell-based. The note with it: MDA-MB-231, 24 h. On the technique in general: ELISA stands for enzyme-linked immunosorbent assay.
Experiment [3] concerns SK-OV-3. As to the kind of experiment: Induction of apoptosis in human SKOV3 cells at 80 umol/L after 48 hrs by annexin-V-FITC/propidium iodide staining-based flow cytometric method relative to control. The experiment is classed as functional.
Experiment [4] deals with HT-1080. As to the kind of experiment: Decrease in UPA expression in human HT1080 cells. The experiment is classed as functional, cell-based.
In experiment [5] the test system is MCF7R. As to the kind of experiment: Cytotoxicity against human MCF7/R cells after 72 hrs in presence of curcumin by MTS assay relative to control. The experiment is classed as functional. For orientation: Tetrazolium assays rely on reduction of a dye to a coloured formazan, in cell work by metabolically active cells.
Experiment [6] has as its system MCF7R. As to the kind of experiment: Cytotoxicity against human MCF7/R cells at 10 uM after 72 hrs by MTS assay relative to control. The experiment is classed as functional.
The next experiment relates to A549. As to the kind of experiment: Cell cycle arrest in human A549 cells by propidium iodide staining-based flow cytometric method. The experiment is classed as functional.
For the next experiment, the system named is MCF7. As to the kind of experiment: Cell cycle arrest in human MCF7 cells by propidium iodide staining-based flow cytometric method. The experiment is classed as functional.
The subject of experiment [7] is HepG2. As to the kind of experiment: Induction of apoptosis in human HepG2 cells relative to control. The experiment is classed as functional, cell-based.
Experiment [8] relates to HT-1080. As to the kind of experiment: Antioxidant activity in human HT1080 cells at 100 umol/L by measuring TBARS level by spectrophotometric method relative to control. The experiment is classed as functional.
The next experiment relates to 3LL cell line. As to the kind of experiment: Induction of apoptosis in mouse 3LL cells relative to control. The experiment is classed as functional, cell-based.
The next experiment relates to DU-145. As to the kind of experiment: Cell cycle arrest in human DU145 cells by propidium iodide staining-based flow cytometric method. The experiment is classed as functional.
Another experiment deals with U-937. As to the kind of experiment: Induction of apoptosis in human U937 cells relative to control. The experiment is classed as functional, cell-based.
The test system of the next experiment is HL-60. As to the kind of experiment: Induction of apoptosis in human HL60 cells relative to control. The experiment is classed as functional, cell-based.
A further experiment deals with KB. As to the kind of experiment: Cell cycle arrest in human KB cells by propidium iodide staining-based flow cytometric method. The experiment is classed as functional.
Experiment [9] can be described thus: Induction of apoptosis in human SNUC5 cells relative to control. The experiment is classed as functional, cell-based.
The test system of the next experiment is SGC-7901. As to the kind of experiment: Antiproliferative activity against human SGC7901 cells by MTT assay. The experiment is classed as functional, cell-based.
Another experiment deals with L02. As to the kind of experiment: Antiproliferative activity against human HL7702 cells by MTT assay. The experiment is classed as functional, cell-based.
The next experiment deals with U-251. As to the kind of experiment: Antiproliferative activity against human U251 cells by MTT assay. The experiment is classed as functional, cell-based.
The subject of the next experiment is NCI-H460. As to the kind of experiment: Antiproliferative activity against human H460 cells by MTT assay. The experiment is classed as functional, cell-based.
The subject of a further experiment is CHO-K1. As to the kind of experiment: Cytotoxicity against CHOK1 cells by MTT/SRB assay. The experiment is classed as functional, cell-based. To be noted: Cricetulus griseus.
Experiment [10] concerns HT-29. As to the kind of experiment: Cytotoxicity against human HT-29 cells by MTT/SRB assay. The experiment is classed as functional, cell-based.
The subject of experiment [11] is Caco-2. As to the kind of experiment: Cytotoxicity against human Caco2 cells by MTT/SRB assay. The experiment is classed as functional, cell-based.
In experiment [12] the test system is HepG2. As to the kind of experiment: Cytotoxicity against human HepG2 cells by MTT/SRB assay. The experiment is classed as functional, cell-based.
Another experiment has as its system WiDr. As to the kind of experiment: Cytotoxicity against human WiDr cells after 4 hrs by MTT assay. The experiment is classed as functional, cell-based.
In a further experiment the test system is Colon 26. As to the kind of experiment: Cytotoxicity against mouse Colon 26 cells after 4 hrs by MTT assay. The experiment is classed as functional, cell-based. To be noted: Colon 26, 4 h, read-out: IC50.
The subject of experiment [13] is HT-29. As to the kind of experiment: Cytotoxicity against human HT-29 cells after 4 hrs by MTT assay. The experiment is classed as functional, cell-based. The note with it: HT-29, 4 h.
Experiment [14] can be described thus: Cytotoxicity against human SW116 cells after 4 hrs by MTT assay. The experiment is classed as functional, cell-based. To be noted: SW116, 4 h.
Another experiment relates to KM12. As to the kind of experiment: Cytotoxicity against human KM12 cells after 4 hrs by MTT assay. The experiment is classed as functional, cell-based. To be noted: KM12, 4 h.
The next experiment relates to SW480. As to the kind of experiment: Cytotoxicity against human SW480 cells after 4 hrs by MTT assay. The experiment is classed as functional, cell-based. To be noted: SW480, 4 h.
Experiment [15] deals with Caco-2. As to the kind of experiment: Cytotoxicity against human Caco2 cells by MTT assay. The experiment is classed as functional, cell-based.
In a further experiment the test system is A-431. As to the kind of experiment: Cytotoxicity against human A431 cells after 72 hrs by MTT assay. The experiment is classed as functional, cell-based. The note with it: A-431, 72 h.
In a further experiment the test system is A-375. As to the kind of experiment: Cytotoxicity against human A375 cells after 72 hrs by MTT assay. The experiment is classed as functional, cell-based. The note with it: A-375, 72 h.
The next experiment has as its system SCC-25. As to the kind of experiment: Cytotoxicity against human SCC25 cells after 72 hrs by MTT assay. The experiment is classed as functional, cell-based. The note with it: SCC-25, 72 h.
Experiment [16] in a line: Cytotoxicity against […] cells after 72 hrs by MTT assay. The experiment is classed as functional, cell-based. The note with it: B16, 72 h.
Experiment [17] can be described thus: Cytotoxicity against human BCC cells after 72 hrs by MTT assay. The experiment is classed as functional, cell-based.
Experiment [18] deals with 72 kDa type IV collagenase (Homo sapiens) (UniProt P08253). As to the kind of experiment: Inhibition of MMP2 (unknown origin).
72 kDa type IV collagenase (Homo sapiens), sequence (P08253 110-660 limits assumed): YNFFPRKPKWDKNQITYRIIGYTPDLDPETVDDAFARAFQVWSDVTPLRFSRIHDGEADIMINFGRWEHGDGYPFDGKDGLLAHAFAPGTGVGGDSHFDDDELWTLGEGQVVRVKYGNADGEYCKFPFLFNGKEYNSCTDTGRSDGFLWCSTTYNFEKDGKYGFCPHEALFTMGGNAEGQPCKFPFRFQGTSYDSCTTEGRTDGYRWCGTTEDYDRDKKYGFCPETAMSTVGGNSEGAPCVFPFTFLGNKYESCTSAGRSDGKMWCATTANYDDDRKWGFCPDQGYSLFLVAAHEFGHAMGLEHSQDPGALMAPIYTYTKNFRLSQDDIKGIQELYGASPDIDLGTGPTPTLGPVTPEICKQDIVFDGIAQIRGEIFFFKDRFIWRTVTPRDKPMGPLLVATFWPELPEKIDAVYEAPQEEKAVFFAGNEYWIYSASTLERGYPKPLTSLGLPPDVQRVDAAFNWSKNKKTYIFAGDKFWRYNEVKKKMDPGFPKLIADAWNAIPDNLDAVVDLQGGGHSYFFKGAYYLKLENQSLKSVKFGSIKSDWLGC

In general, IC50 refers to the midpoint of a concentration-inhibition curve. In the case of `COc1cc(/C=C/C(=O)CC(=O)/C=C/c2ccc(O)cc2)ccc1O`, the Activity in the experiment with SK-OV-3 [1] is reported as 35.1%; in the experiment on SK-OV-3 [2] it was 51.5%; in the experiment on SK-OV-3 [3], 70.7%. Besides, the IC50 in the experiment on MDA-MB-231 is 9 µM; in the experiment on HT-1080 [4], 7.5 µM.
The inhibition is the share of the control response that was lost under treatment. A lower inhibition goes with a weak effect. Consider `COc1cc(/C=C/c2cc(/C=C/c3ccc(O)c(OC)c3)on2)ccc1O`, for which the “inhibition (INH)” value with MCF7R [5] came out at 57.6%. The inhibition at 10 µM in the experiment with MCF7R [6] was determined as 57.8%.
For `C/C=C/c1ccc(O)c(OC)c1`, the IC50 with A549 worked out at 33.5 µM; in the experiment on MCF7, 40.7 µM; in the experiment on HepG2 [7] it was 119 µM; with 3LL cell line, 89.6 µM; in the experiment with DU-145 it was 33.2 µM; with U-937, 39.4 µM. The IC50 in the experiment with HL-60 was 23.7 µM; in the experiment with KB, 38.6 µM; in experiment [9], 129 µM. Besides, the Activity in the experiment with HT-1080 [8] was 70%.
On to `O=C1/C(=C/c2ccccc2F)CNC/C1=C\c1ccccc1F`, for which the IC50 worked out at 6.5 µM in the experiment on SGC-7901, 5.8 µM with L02, 4.5 µM with U-251 and 6 µM with NCI-H460.
With `O=C(/C=C(O)/C=C/c1c[nH]c2ccccc12)/C=C/c1c[nH]c2ccccc12`, the IC50 in the experiment on CHO-K1, in the experiment on HT-29 [10], in the experiment on Caco-2 [11] and with HepG2 [12] was 3.3 to 12.1 µM each time.
For `COc1cc(/C=C/C(=O)C(Cc2ccc(O)c(OC)c2)C(=O)/C=C/c2ccc(O)c(OC)c2)ccc1O`, the IC50 is 7.32 µM in the experiment on WiDr; 8.91 µM in the experiment with Colon 26; 5.42 µM in the experiment with HT-29 [13]; 7.08 µM in [14]; 3.9 µM with KM12; 4.78 µM in the experiment on SW480.
`CCOC(=O)CCC(=O)Oc1ccc(/C=C/C(=O)/C=C(O)/C=C/c2ccc(OC(=O)CCC(=O)OCC)c(OC)c2)cc1OC` registered an IC50 in the experiment on Caco-2 [15] of 1.84 µM.
With `COc1cc(CCC(=O)CCCCc2ccccc2)ccc1O`, the IC50 was 13.3 µM in the experiment with A-431; 23.8 µM with A-375; 18.7 µM in the experiment on SCC-25; 40 µM in experiment [16]; 11.3 µM in experiment [17].
In the case of `CCCCC[C@H](O)CC(=O)CCc1ccc(O)c(OC)c1`, the INH in experiment [18] is above 10 µmol/L.
